Values after ≈ are worked out from the molar mass of the structure shown. Read-outs that look alike come from different tables or passages of the source.
Experiments:
[1] = tested on: Herpes simplex type 1 virus (HFEM strain); test: Plaque reduction assay in cell culture; assay type: cell-based; conditions: Human alphaherpesvirus 1, 144 h; concentration causing a 50% reduction in the number of virus plaques; HSV-1 HFEM strain in Vero cells, 37°C, 6 days; read-out: PDD50 (the source's name)
Description: (§1) Vero (African Green Monkey Kidney) cells were grown to confluence in 6 well multidishes, each well being 3.5 cm in diameter. The cells were incubated with Herpes simplex type 1 virus (HFEM strain) and overlaid with 0.5 ml of 0.9% agarose (w/v) in maintenance medium containing the test compound at a range of concentrations from 100 pg/mL in half-log dilution steps. The virus infected cultures were then incubated at 37°C for 6 days before fixing in 4% formaldehyde solution and staining with carbolfuchsin. The dishes were then examined to find what concentration of test compound causing a 50% reduction in the number of virus plaques formed (PDD50 value) and the minimum concentration of test compound which killed the cell monolayer, leaving a clear zone devoid of cells and virus plaques (MTD).

[2] = In vivo blood level study: antiviral activity of mouse serum titrated in plaque inhibition assays; set-up: species or system Balb/c mice
Description: Single 100 mg/kg doses of the compound were administered orally as suspensions in carboxymethyl cellulose to groups of 3 starved female Balb/c mice. Blood was collected 120 minutes after dosing and the serum separated and stored at -20°C. Heat inactivated sera from single mice were titrated in plaque inhibition assays using the KOS strain of Herpes simplex type 1 virus in Vero cell monolayers. Antiviral activity is calculated by extrapolation from a standard inhibition dose response curve for E-5-(2-bromovinyl)-2'-deoxyuridine and is quoted as the equivalent concentration of E-5-(2-bromovinyl)-2'-deoxyuridine (in ug/mL) giving the same antiviral activity in cell culture.

[3] = Toxicity to the cell monolayer (MTD) in the plaque reduction assay; assay type: cell-based; conditions: monkey; minimum concentration which killed the cell monolayer; Vero cells, 6 days
Description: as §1

| SMILES | EC50 [1] [µg/mL] | concentration at 2 h ([2]; po, 100 mg/kg) [ng/mL] | MCC at 144 h [3] [µg/mL] | concentration at 2 h ([2]; single 100 mg/kg oral dose, suspension in carboxymethyl cellulose, starved female Balb/c mice, 120 minutes after dosing, HSV-1 KOS in Vero cell monolayers, read-out: Antiviral activity in serum, as equivalent concentration of E-5-(2-bromovinyl)-2'-deoxyuridine) [ng/mL] |
| --- | --- | --- | --- | --- |
| Cn1c(=O)c(/C=C/Br)cn([C@H]2C[C@H](O)[C@@H](CO)O2)c1=O [Example 1, E-3-methyl-5-(2-bromovinyl)-2'-deoxyuridine] | 5.4 (≈ 15.6 µM) | 3100 ± 800 | > 100 | – |
| O=c1[nH]c(=O)n([C@H]2C[C@H](O)[C@@H](CO)O2)cc1/C=C/Br [E-5-(2-bromo-vinyl)-2'-deoxyuridine, E-5-(2-bromovinyl)-2'-deoxyuridine, reference compound] | – | – | – | 1700 ± 500 |

Reference: patent EP0072137A1, “Antiviral deoxyuridine compounds” (BEECHAM GROUP PLC, priority 1981, dated 1983)
